One may read the Ki as the dissociation constant of the complex between target and ligand, obtained from inhibition or displacement. A higher Ki goes with weaker binding. One may read the inhibition as the drop in the measured response relative to a control, in per cent. A high value points to strong suppression.

Structures are written as SMILES.

In one assay the target is T1, B2 bradykinin receptor (Homo sapiens, UniProt P30411).
T1 sequence (P30411 whole entry): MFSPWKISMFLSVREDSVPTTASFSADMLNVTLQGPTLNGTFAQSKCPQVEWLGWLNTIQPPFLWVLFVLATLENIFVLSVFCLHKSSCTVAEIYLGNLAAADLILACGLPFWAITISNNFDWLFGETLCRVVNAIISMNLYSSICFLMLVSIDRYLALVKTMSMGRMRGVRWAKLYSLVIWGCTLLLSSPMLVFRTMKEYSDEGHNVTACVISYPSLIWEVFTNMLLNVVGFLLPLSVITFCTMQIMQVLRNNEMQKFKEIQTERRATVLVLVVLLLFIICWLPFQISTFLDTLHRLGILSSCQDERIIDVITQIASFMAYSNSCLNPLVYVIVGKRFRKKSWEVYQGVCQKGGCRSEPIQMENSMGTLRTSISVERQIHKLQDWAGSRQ
Description: Tested for binding affinity against human IMR-90 Bradykinin receptor B2.
As for `CCCC[P+](CCCC)(CCCC)Cc1ccc(NC(=O)C2Cc3ccccc3CN2C(=O)CCCc2ccccc2)cc1` (stereo not drawn), the Ki came out at 10 µM.

For `CCCC[P+](CCCC)(CCCC)Cc1ccc(NC(=O)C2Cc3ccccc3CN2C(=O)C(CCc2ccccc2)NC(=O)OC(C)(C)C)cc1` (stereo not drawn), the Ki stood at 8 µM. This Ki and that of the compound before are within 1.5-fold of each other.

Another assay deals with T2, B2 bradykinin receptor (Homo sapiens) (UniProt P30411).
T2 sequence (whole entry): T1 sequence (P30411 whole entry)
Description: Tested for percent inhibition of binding affinity against Bradykinin receptor B2 at 10 uM concentration.
With `CCCC[PH](CCCC)(CCCC)Cc1ccc(NC(=O)C2Cc3ccccc3CN2C(=O)CN)cc1` (stereo not drawn), the inhibition was found to be 36%. For `CCCC[PH](CCCC)(CCCC)Cc1ccc(NC(=O)C2Cc3ccccc3CN2C(=O)CN/C(=N/C2CCCCC2)NC2CCCCC2)cc1` (stereo not drawn), the inhibition is 33%. Turning to `CCCC[P+](CCCC)(CCCC)Cc1ccc(NC(=O)C2Cc3ccccc3CN2C(=O)CCCc2ccccc2)cc1` (stereo not drawn), the inhibition was > 50%. In the case of `CCCC[PH](CCCC)(CCCC)Cc1ccc(NC(=O)C2Cc3ccccc3CN2C(=O)[C@H](CCc2ccccc2)N/C(=N/C2CCCCC2)NC2CCCCC2)cc1` (single isomer, unassigned; diastereomer 2), the inhibition was > 50%.

For `CCCC[PH](CCCC)(CCCC)Cc1ccc(NC(=O)C2Cc3ccccc3CN2C(=O)[C@@H](N)CCc2ccccc2)cc1` (single isomer, unassigned; diastereomer 1), the inhibition was found to be 26%. The same measure, in the same setting: the result for `CCCC[P+](CCCC)(CCCC)Cc1ccc(NC(=O)C2Cc3ccccc3CN2C(=O)CNC(=O)OC(C)(C)C)cc1` (stereo not drawn) reads 18%. As for `CCCC[P+](CCCC)(CCCC)Cc1ccc(NC(=O)C2Cc3ccccc3CN2C(=O)C(CCc2ccccc2)NC(=O)OC(C)(C)C)cc1` (stereo not drawn), the inhibition is > 50%. As for `O=C(Nc1ccc(CN/C(=N/C2CCCCC2)NC2CCCCC2)cc1)C1Cc2ccccc2CN1C(=O)CN/C(=N/C1CCCCC1)NC1CCCCC1` (stereo not drawn), the inhibition was found to be 12%. The same measure, in the same setting: the result for `CCCC[PH](CCCC)(CCCC)Cc1ccc(NC(=O)C2Cc3ccccc3CN2C(=O)[C@H](CCc2ccccc2)N/C(=N/C2CCCCC2)NC2CCCCC2)cc1` (single isomer, unassigned; diastereomer 1) reads > 50%; that for `CCCC[PH](CCCC)(CCCC)Cc1ccc(NC(=O)C2Cc3ccccc3CN2/C(=N/C2CCCCC2)NC2CCCCC2)cc1` (stereo not drawn), 34%. Compound `CCCC[PH](CCCC)(CCCC)Cc1ccc(NC(=O)C2Cc3ccccc3CN2C(=O)[C@@H](N)CCc2ccccc2)cc1` (single isomer, unassigned; diastereomer 2) registered an inhibition of 26%.

Values taken from ChEMBL document CHEMBL1128132, “Ace inhibitors as a template for the design of bradykinin B2 receptor antagonists” (Bioorg Med Chem Lett, 1995).
